According to patent US20050060764A1, “Mouse model for bone metabolism” (priority 2003, published 2005):
Strand notation (5' to 3'): a small letter for the sugar, then the base; units joined by * are phosphorothioate-linked, units joined directly phosphodiester-linked; [ ] holds rarer units or linkages, { } end groups; capitals alone tell only the bases. e = 2'-O-(2-methoxyethyl) (MOE); [5mC] = 5-methylcytosine; d = 2'-deoxy (DNA)

The substances below were run on rat RANKL mRNA (assay: Antisense inhibition of rat RANKL mRNA levels in UMR-106 cells, quantitative real-time PCR (Table 3)). Details: averages from three experiments.
Format: cell-based
Parameters: concentration or dose not given beside the values
Description: Cells were seeded onto 24-well plates (Falcon-353047) at a density of […] for use in antisense oligonucleotide transfection.
Cells are treated and data are obtained in triplicate. […] Cells were harvested 16-24 hours after oligonucleotide treatment.
PCR reagents were obtained from Invitrogen Corporation, (Carlsbad, Calif.).
Probes and primers to rat RANKL were designed to hybridize to a rat RANKL sequence, using published sequence information (GenBank accession number NM_057149.1, incorporated herein as SEQ ID NO:18). For rat RANKL the PCR primers were: • forward primer: […] (SEQ ID NO:19) • reverse primer: […] (SEQ ID NO: 20) and the • PCR probe was: FAM-[…]-TAMRA (SEQ ID NO: 21) where FAM is the fluorescent reporter dye and TAMRA is the quencher dye. For rat GAPDH the PCR primers were: • forward primer: […](SEQ ID NO:22) • reverse primer: […](SEQ ID NO:23) and the • PCR probe was: 5′ JOE-[…]-TAMRA 3′ (SEQ ID NO: 24) where JOE is the fluorescent reporter dye and TAMRA is the quencher dye.
In accordance with the present invention, a second series of antisense compounds was designed to target different regions of the rat RANKL RNA, using published sequences (GenBank accession number NM_057149.1, incorporated herein as SEQ ID NO: 18, and GenBank accession number AF425669.1, incorporated herein as SEQ ID NO: 200). […] All cytidine residues are 5-methylcytidines. […] If present, “N.D.” indicates “no data”.

Substance	% INHIB (inhibition of rat RANKL mRNA levels)
286629 (antisense eA*e[5mC]*e[5mC]*eA*eT*d[5mC]*dA*dG*d[5mC]*dT*dG*dA*dA*dG*dA*eT*eA*eG*eT*e[5mC]) [compound 286629]	63%
aacctgtattttcacggagt (eA*eA*e[5mC]*e[5mC]*eT*dG*dT*dA*dT*dT*dT*dT*d[5mC]*dA*d[5mC]*eG*eG*eA*eG*eT; antisense) [ISIS 286602, 2′-MOE gapmer targeted to rat RANKL]	at least 40%
cttagtagtcttacacatgt (e[5mC]*eT*eT*eA*eG*dT*dA*dG*dT*d[5mC]*dT*dT*dA*d[5mC]*dA*e[5mC]*eA*eT*eG*eT; antisense) [ISIS 286645, 2′-MOE gapmer targeted to rat RANKL]	at least 40%
286616 (antisense e[5mC]*eA*eT*eG*eT*dT*dA*dG*dA*dG*dA*dT*d[5mC]*dT*dT*eG*eG*e[5mC]*e[5mC]*e[5mC]) [compound 286616]	31%
286648 (antisense e[5mC]*e[5mC]*eA*eT*eT*dG*dT*dG*dT*dG*dA*dT*d[5mC]*dA*d[5mC]*e[5mC]*eA*eT*eG*eA) [compound 286648]	72%
gtcttacacatgtatctaca (eG*eT*e[5mC]*eT*eT*dA*d[5mC]*dA*d[5mC]*dA*dT*dG*dT*dA*dT*e[5mC]*eT*eA*e[5mC]*eA; antisense) [ISIS 286644, 2′-MOE gapmer targeted to rat RANKL]	at least 40%
ctgcgctcgaaagtacagga (e[5mC]*eT*eG*e[5mC]*eG*d[5mC]*dT*d[5mC]*dG*dA*dA*dA*dG*dT*dA*e[5mC]*eA*eG*eG*eA; antisense) [ISIS 286593, 2′-MOE gapmer targeted to rat RANKL]	at least 40%
tcacggagtctcagaattct (eT*e[5mC]*eA*e[5mC]*eG*dG*dA*dG*dT*d[5mC]*dT*d[5mC]*dA*dG*dA*eA*eT*eT*e[5mC]*eT; antisense) [ISIS 286601, 2′-MOE gapmer targeted to rat RANKL]	at least 40%
286647 (antisense eG*eA*e[5mC]*e[5mC]*eT*dG*dT*dA*d[5mC]*dA*dG*dG*dG*dT*d[5mC]*eG*eA*eG*eA*eG) [compound 286647]	53%
286595 (antisense eT*eA*eG*eG*eA*dT*d[5mC]*d[5mC]*dA*dT*d[5mC]*dT*dG*d[5mC]*dG*e[5mC]*eT*e[5mC]*eG*eA) [compound 286595]	46%
286586 (antisense eG*eG*eT*eA*e[5mC]*dT*dT*dG*d[5mC]*d[5mC]*dG*dT*dA*dG*dT*e[5mC]*eT*e[5mC]*eG*eG) [compound 286586]	63%
aggttctcagtggcacaggc (eA*eG*eG*eT*eT*d[5mC]*dT*d[5mC]*dA*dG*dT*dG*dG*d[5mC]*dA*e[5mC]*eA*eG*eG*e[5mC]; antisense) [ISIS 286651, 2′-MOE gapmer targeted to rat RANKL]	at least 40%
286618 (antisense eA*e[5mC]*e[5mC]*e[5mC]*eT*dT*dA*dG*dT*dT*dT*dT*d[5mC]*d[5mC]*dG*eT*eT*eG*e[5mC]*eT) [compound 286618]	57%
286599 (antisense e[5mC]*eG*e[5mC]*eG*eT*dG*d[5mC]*dT*dG*dT*d[5mC]*dT*dT*d[5mC]*dT*eG*eA*eT*eA*eT) [compound 286599]	46%
286601 (antisense eT*e[5mC]*eA*e[5mC]*eG*dG*dA*dG*dT*d[5mC]*dT*d[5mC]*dA*dG*dA*eA*eT*eT*e[5mC]*eT) [compound 286601]	63%
